Columns and labels:
HrcNHis = molecular target: T1, HrcNHis (Pseudomonas syringae group genomosp. 3, UniProt Q887B5); experiment: pyruvate kinase/lactate dehydrogenase-linked ATPase assay; assay type: biochemical
T1 construct: gene sctN; full-length, N-terminal His6 tag (pETNdeM-11), expressed in E. coli

FliIΔ1–18 [1] = system: T2, FliIΔ1–18; assay type: biochemical; conditions: ATP substrate, 2 mM MgCl2, pH 8.0; allosteric
T2 construct: gene fliI; N-terminal truncation lacking first 18 residues, N-terminal His6 tag (pETNdeM-11), expressed in E. coli

FliIHis [2] = molecular target: T3, FliIHis; experiment: pyruvate kinase/lactate dehydrogenase-linked ATPase assay; assay type: biochemical, Pseudomonas fluorescens; conditions: 1 mM ATP, 2 mM MgCl2, pH 8.0; allosteric
T3 construct: gene fliI

FliIHis [3] = system: T3, FliIHis; conditions: no cdG; 2 mM MgCl2, 10 mM KCl, pH 8.0
FliIΔ1–18 [4] = system: T4, FliIΔ1–18; conditions: no cdG; 2 mM MgCl2, 10 mM KCl, pH 8.0
T4 construct: gene fliI

T1 sequence (Q887B5 whole entry): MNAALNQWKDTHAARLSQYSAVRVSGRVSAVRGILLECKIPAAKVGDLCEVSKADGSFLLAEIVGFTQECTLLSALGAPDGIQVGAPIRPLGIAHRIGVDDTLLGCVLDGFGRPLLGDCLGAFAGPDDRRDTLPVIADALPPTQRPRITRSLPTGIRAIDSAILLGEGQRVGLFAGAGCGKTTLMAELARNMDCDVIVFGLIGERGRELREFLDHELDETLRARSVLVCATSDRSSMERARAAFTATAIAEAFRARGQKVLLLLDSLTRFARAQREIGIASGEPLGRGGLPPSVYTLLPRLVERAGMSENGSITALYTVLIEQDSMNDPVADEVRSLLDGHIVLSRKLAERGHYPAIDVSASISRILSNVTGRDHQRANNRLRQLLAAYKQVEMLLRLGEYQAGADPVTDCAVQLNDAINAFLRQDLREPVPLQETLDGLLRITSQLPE

Structure (SMILES) | IC50 (HrcNHis) [µM] | IC50 (FliIΔ1–18 [1]) [µM] | IC50 (FliIHis [2]) [µM] | Km (FliIHis [3]) [µM] | Km (FliIΔ1–18 [4]) [µM]
Nc1nc2c(ncn2[C@@H]2O[C@@H]3COP(=O)(O)O[C@H]4[C@@H](O)[C@H](n5cnc6c(=O)[nH]c(N)nc65)O[C@@H]4COP(=O)(O)O[C@H]3[C@H]2O)c(=O)[nH]1 [cdG] | 25.1 ± 1.14 | 48.8 ± 0.159 | 36.7 ± 1.13 |  | 
Nc1ncnc2c1ncn2[C@@H]1O[C@H](COP(=O)(O)OP(=O)(O)OP(=O)(O)O)[C@@H](O)[C@H]1O [ATP] |  |  |  | 0.48 ± 0.03 | 0.45 ± 0.04

Source: publication PMC4591828, “Bacterial Rotary Export ATPases Are Allosterically Regulated by the Nucleotide Second Messenger Cyclic-di-GMP” (The Journal of Biological Chemistry, 2015)
